Test systems include SK-MEL-5; RXF 393; OVCAR-3; MDA-MB-435; SK-MEL-2; SNB-19; A549; MDA-N; M14; EKVX; UACC-62; NCI/ADR-RES; KM12; HOP-92; NCI-H460; MOLT-4; NCI-H226; SNB-75; MCF7; SR.
What all share (assay): inhibition of tumour cell growth, NCI panel, 48 h

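48-hour exposure; five concentrations; linearly interpolated endpoints. GI50 marks 50% less growth.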 Calls of active or inactive are those of the source. Cut-off read from the data, not from the text of the source: active = GI50 up to about 1.1 µM and inactive = higher.

For `CC(=O)CCC1(C(=O)OCC(C)C)CCCC1=O` (stereo not drawn), the GI50 with SK-MEL-5 is > 100 µM (inactive); in the assay on RXF 393, > 100 µM (inactive); with OVCAR-3, 63.4 µM (inactive); in the assay on MDA-MB-435, > 100 µM (inactive); in the assay on SK-MEL-2, > 100 µM (inactive); with SNB-19, > 100 µM (inactive). In addition, the GI50 with A549, in the assay with MDA-N, in the assay on M14, with EKVX, in the assay on UACC-62 and with NCI/ADR-RES was > 100 µM (inactive) in each case. Besides, the GI50 in the assay on KM12 is > 100 µM (inactive); with HOP-92, 90.6 µM (inactive); in the assay on NCI-H460 it was > 100 µM (inactive); with MOLT-4, > 100 µM (inactive); in the assay on NCI-H226, > 100 µM (inactive); in the assay with SNB-75, > 100 µM (inactive).

As for `CC1C2CC(CC(=O)N2)C1(C)C` (stereo not drawn), the GI50 in the assay with SK-MEL-5, with RXF 393, with MCF7, in the assay on OVCAR-3, with MDA-MB-435 and in the assay on SNB-19 was > 100 µM (inactive) throughout. Further, the GI50 with A549, in the assay on MDA-N, with M14, with EKVX, with UACC-62 and in the assay with KM12 was > 100 µM (inactive) in each case. Moreover, the GI50 with HOP-92, with NCI-H460, in the assay with NCI-H226 and in the assay with SNB-75 was > 100 µM (inactive) each time.

Regarding `COc1cc([N+](=O)[O-])c(OC)c2c(Nc3ccc(S(=O)(=O)O)c4cc(S(=O)(=O)O)cc(S(=O)(=O)O)c34)cc(C)nc12`, the GI50 in the assay with SK-MEL-5, in the assay with RXF 393, with MCF7, in the assay on OVCAR-3, with MDA-MB-435 and with SK-MEL-2 was > 100 µM (inactive) in each case. The GI50 with A549, in the assay on MDA-N, in the assay on M14, in the assay with EKVX, in the assay on UACC-62 and with NCI/ADR-RES was > 100 µM (inactive) each time. Further, the GI50 in the assay with KM12, with MOLT-4, with NCI-H226 and in the assay on SNB-75 was > 100 µM (inactive) each time.

For `N#Cc1c(-c2ccccc2)cc(Nc2cccc(C(F)(F)F)c2)n2c1nc1ccccc12`, the GI50 with SK-MEL-5 is 0.548 µM (active); in the assay on RXF 393 it was 1.99 µM (inactive); in the assay on OVCAR-3, 0.561 µM (active); in the assay with MDA-MB-435, 2.01 µM (inactive); in the assay with MDA-N, 1.4 µM (inactive); in the assay on EKVX it was 1.2 µM (inactive). The GI50 with NCI/ADR-RES was 1.33 µM (inactive); in the assay on KM12 it was 2.17 µM (inactive); in the assay with HOP-92 it was 0.206 µM (active); with NCI-H460, 0.766 µM (active); with MOLT-4, 0.76 µM (active); with NCI-H226 it was 0.687 µM (active). In the assay on SNB-75, the GI50 was 1.82 µM (inactive).

Consider `C=C1C[C@H]2C=Nc3cc(OCCCOc4cc5c(cc4OC)C(=O)N4CC(=C)C[C@H]4C=N5)c(OC)cc3C(=O)N2C1` [SJG-136], for which the GI50 was < 0.01 µM (active) in the assay on SR; < 0.01 µM (active) in the assay on SK-MEL-5; < 0.0107 µM (active) in the assay with RXF 393; 0.012 µM (active) in the assay on MCF7; 0.0172 µM (active) in the assay with OVCAR-3; < 0.01 µM (active) with SNB-19. The GI50 in the assay on A549 is 0.0157 µM (active); in the assay on MDA-N, 0.0143 µM (active); in the assay on UACC-62, < 0.01 µM (active); with KM12, 0.0124 µM (active); with HOP-92 it was 0.00682 µM (active); with NCI-H460 it was < 0.01 µM (active). Also, the figures for the GI50 in the assay with MOLT-4, in the assay on NCI-H226 and in the assay with SNB-75 were 0.000136 µM (active), 0.0122 µM (active) and < 0.01 µM (active), respectively.

Take `COC(=O)/C(C#N)=C1\NC(=O)CC(c2ccccc2)C1C#N` (stereo not drawn): the GI50 in the assay with SR, with SK-MEL-5, in the assay on RXF 393, in the assay with MCF7, in the assay with OVCAR-3 and in the assay on SK-MEL-2 was > 100 µM (inactive) in each case. The GI50 in the assay on SNB-19, with A549, in the assay on MDA-N, in the assay on M14, in the assay on EKVX and with UACC-62 was > 100 µM (inactive) in each case. Further, the GI50 with NCI/ADR-RES is > 100 µM (inactive); with KM12, > 100 µM (inactive); with HOP-92 it was 63.5 µM (inactive); in the assay on NCI-H460, > 100 µM (inactive); with MOLT-4 it was > 100 µM (inactive); in the assay on NCI-H226, > 100 µM (inactive). For the same compound, the GI50 in the assay with SNB-75 is > 100 µM (inactive).

As to `NNC(=O)c1nnn(N)c1S`, the GI50 with SK-MEL-5, in the assay on RXF 393, with OVCAR-3, in the assay with MDA-MB-435, in the assay with SK-MEL-2 and in the assay on A549 was > 100 µM (inactive) throughout. In addition, the GI50 in the assay with MDA-N was > 100 µM (inactive); in the assay with M14, > 100 µM (inactive); in the assay with EKVX, > 100 µM (inactive); in the assay on UACC-62 it was > 100 µM (inactive); in the assay with NCI/ADR-RES, > 100 µM (inactive); in the assay with KM12, 13.5 µM (inactive). Moreover, the GI50 with NCI-H460, in the assay on MOLT-4, in the assay on NCI-H226 and with SNB-75 was > 100 µM (inactive) throughout.

Turning to `CC(C(=O)c1ccncc1)c1ccccn1` (stereo not drawn), the GI50 in the assay on SK-MEL-5, in the assay on RXF 393, in the assay on MCF7, with OVCAR-3, in the assay with MDA-MB-435 and in the assay with SK-MEL-2 was > 100 µM (inactive) in each case. In addition, the GI50 in the assay on SNB-19, in the assay with A549, in the assay on MDA-N, with M14, with EKVX and in the assay on UACC-62 was > 100 µM (inactive) each time. Also, the GI50 with NCI/ADR-RES, with KM12, with HOP-92, with NCI-H460 and with NCI-H226 was > 100 µM (inactive) each time.

Turning to `NC(Cc1ccc(B(O)O)cc1)C(=O)NC(CO)CO` (stereo not drawn), the GI50 is > 100 µM (inactive) in the assay with SR; > 100 µM (inactive) in the assay with SK-MEL-5; 67.6 µM (inactive) in the assay on RXF 393; > 100 µM (inactive) in the assay with OVCAR-3; > 100 µM (inactive) in the assay on MDA-MB-435; > 100 µM (inactive) in the assay on SK-MEL-2. In addition, the GI50 with SNB-19, with A549, with MDA-N, with M14, in the assay with EKVX and in the assay on UACC-62 was > 100 µM (inactive) throughout. Besides, the GI50 with NCI/ADR-RES, in the assay with KM12, with NCI-H460, in the assay on MOLT-4, in the assay with NCI-H226 and with SNB-75 was > 100 µM (inactive) throughout.

For the compound `Cc1ccc2c(=O)c(C(=O)NNC(=S)NC3CCCCC3)c[nH]c2n1`, the GI50 with SK-MEL-5 was 33.7 µM (inactive); with RXF 393, > 100 µM (inactive); in the assay on MCF7, 83.6 µM (inactive); with OVCAR-3 it was 71.8 µM (inactive); with MDA-MB-435 it was 30.1 µM (inactive); in the assay with SK-MEL-2, 65.9 µM (inactive). Further, the GI50 was > 100 µM (inactive) in the assay on SNB-19; > 100 µM (inactive) in the assay with A549; 31.6 µM (inactive) with MDA-N; 53.2 µM (inactive) in the assay with M14; 68.9 µM (inactive) in the assay on EKVX; 62.4 µM (inactive) in the assay with UACC-62. Moreover, the GI50 in the assay on NCI/ADR-RES is > 100 µM (inactive); with KM12, 56.8 µM (inactive); with NCI-H460 it was 80 µM (inactive); with MOLT-4, 32.7 µM (inactive); in the assay with NCI-H226, 23.9 µM (inactive).

As for `CC1(Cc2cc3c(cc2C2(c4ccc([N+](=O)[O-])cc4)OCCO2)OCO3)OCCO1`, the GI50 in the assay on SK-MEL-5 is 41.7 µM (inactive); with RXF 393 it was 86.1 µM (inactive); in the assay on MCF7, 51.8 µM (inactive); in the assay with OVCAR-3, 69.2 µM (inactive); in the assay on MDA-MB-435 it was 98.2 µM (inactive); in the assay with SK-MEL-2, 68.4 µM (inactive). For the same compound, the GI50 was > 100 µM (inactive) with SNB-19; 43.8 µM (inactive) in the assay with A549; > 100 µM (inactive) in the assay with MDA-N; > 100 µM (inactive) in the assay with M14; > 100 µM (inactive) with EKVX; 36 µM (inactive) in the assay on UACC-62. The GI50 in the assay on NCI/ADR-RES is 87.9 µM (inactive); in the assay with KM12, 72.3 µM (inactive); in the assay on NCI-H460, 59.8 µM (inactive); in the assay with MOLT-4 it was 32.7 µM (inactive); in the assay on NCI-H226 it was 45 µM (inactive).

For the compound `COc1cc(/C=C2\CCC(C)C3=C2NC(=S)NC3c2cc(OC)c(OC)c(OC)c2)cc(OC)c1OC` (stereo not drawn), the GI50 with SR is 25.2 µM (inactive); with SK-MEL-5, 23.2 µM (inactive); in the assay on RXF 393, 34.1 µM (inactive); in the assay with MCF7, 35.7 µM (inactive); with MDA-MB-435, 38.2 µM (inactive); in the assay on SK-MEL-2, > 100 µM (inactive). The GI50 in the assay on SNB-19 was 51.8 µM (inactive); in the assay with A549, 36.4 µM (inactive); in the assay with MDA-N, 43.1 µM (inactive); in the assay on M14, 60.3 µM (inactive); in the assay on EKVX it was 58.1 µM (inactive); with UACC-62 it was 40 µM (inactive). Besides, the GI50 in the assay with KM12 was 32.3 µM (inactive); in the assay with HOP-92, > 100 µM (inactive); in the assay on MOLT-4, 24 µM (inactive); with SNB-75, 25.6 µM (inactive).
